# Results published in patent US10208288B2, “Differentiation of human embryonic stem cells into pancreatic endocrine cells” (Janssen Biotech, Inc., priority 2012, dated 2019).
# Test system: cells of the human embryonic stem cell line H1 differentiated to stage 6
# Assay: Immunostaining for NKX2.2 in stage 6 cultures
# Format: cell-based
# Settings: 10 μM at stage 6, immunostaining; in control cultures NKX2.2+ cells distributed uniformly
# Description: Cells of the human embryonic stem cell line H1 (hESC H1, passage 40) were seeded as single cells at 1×10^5 cells/cm^2 on MATRIGEL™ (1:30 dilution; BD Biosciences, NJ) coated dishes in mTeSR®1 media (StemCell Technologies, Vancouver, Canada) supplemented with 10 μM of Y27632. Forty-eight hours post seeding, cultures were washed in incomplete PBS (phosphate buffered saline without Mg or Ca). Cultures were differentiated into pancreatic endoderm/endocrine lineages as follows: • a) Stage 1 (Definitive Endoderm (DE)—3 days): Cells were cultured for one day in stage 1 media (see Example 1, above). Cells were then cultured for an additional day in MCDB-131 medium supplemented with 0.1% fatty acid-free BSA, 0.0012 g/ml sodium bicarbonate, 1× GlutaMax™, 4.5 mM D-Glucose, 100 ng/ml GDF8, and 0.1 μM MCX compound. […]
smiles,measurement,value
"CCCCCCCCCCCCC/C=C/[C@@H](O)[C@@H](N)COP(=O)(O)O [S1P, sphingosine-1-phosphate]",NKX2.2+ cells in endocrine clusters,enriched for NKX2.2+ cells
